Columns and labels:
[1] = test system: C. tyrobutyricum Δcat1::adhE2; assay: Batch fermentations of glucose and xylose in bioreactors at pH 6.0 with methyl viologen; type: cell-based, Clostridium tyrobutyricum
Description: Batch fermentations of glucose and xylose by C. tyrobutyricum Δcat1::adhE2 were studied in bioreactors at pH 6.0 in the presence of methyl viologen (MV) at various concentrations (0 μM, 200 μM, 500 μM, 1000 μM). For glucose fermentation, MV was added at 12 h after inoculation. […] The fermentation time course data are shown in FIGS. 11A-11H and the effects of MV on cell growth and fermentation kinetics are illustrated in FIG. 12. […] Similar trends were also observed with xylose as the substrate at 200 μM MV. […] The results also indicate that biomass hydrolysate sugars including glucose and xylose can be used simultaneously and converted to butanol by engineered C. tyrobutyricum expressing adhE2.

[2] = test system: C. tyrobutyricum Δcat1::adhE2; assay: Batch fermentation of glucose in serum bottles with methyl viologen added; type: cell-based, Clostridium tyrobutyricum
From the text: Artificial electron carriers such as methyl viologen, benzyl viologen and neutral red have been used in solventogenic clostridia to increase butanol production through diverting electron flow towards NADH formation accompanied by decreased hydrogen production. An artificial electron carrier, such as methyl viologen (MV) and benzyl viologen (BV), was used to inhibit hydrogen production and increase NADH pool and butanol production by C. tyrobutyricum expressing adhE2. C. tyrobutyricum Δcat1::adhE2 was cultured in Clostridia Growth Medium (CGM) containing glucose as the carbon source in serum bottles at 37° C. The medium pH was buffered at ˜5.5 with CaCO3. At 24 h after initial seeding the bottles, methyl viologen was added at various concentrations (up to 1000 μM) to study its effects on cell growth and butanol production. […] The highest butanol yield and productivity were obtained at 500 μM MV. Similar results can also be achieved with other electron carriers such as benzyl viologen and neutral red.

SMILES: C[n+]1ccc(-c2cc[n+](C)cc2)cc1 [MV, methyl viologen]
- Toxicity to cells, xylose compared to glucose ([1]; bioreactor, pH 6.0): more toxic to cells grown on xylose
- Effect on product formation with increasing MV concentration ([1]; glucose as substrate, MV 0-1000 μM added at 12 h, pH 6.0): butanol and lactate production increased while acetate and butyrate production decreased
- Effect on cell growth and fermentation ([1]; xylose as substrate, 500 μM and 1000 μM MV added at 24 h, pH 6.0): completely inhibited cell growth and stopped fermentation
- Effect on cell growth and fermentation (figure legend) ([1]; xylose fermentation, 500 mM and 1000 mM MV, addition delayed to 24 h): completely inhibited cell growth and fermentation
- Effect on acetate and butanol production from glucose ([2]; MV up to 1000 μM added at 24 h, pH ~5.5, 37° C.): dramatically reduced acetate production and increased butanol production
- MV concentration at which lactate was also produced as a byproduct ([2]; glucose, pH ~5.5): ≥ 200 µM
- MV concentration giving the highest butanol yield and productivity ([2]; glucose, pH ~5.5): 500 µM
